This passage reports IC50 results from patent US9963462B2 (priority 2015, dated 2018).

In test [1] the target is SNAP-hSPR (sepiapterin reductase, SPR) (Homo sapiens, UniProt P35270). Nature of the test: biochemical. The following applies: terbium labelled SNAP-hSPR / SSZ labelled SNAP-EGFP; read-out: hTR-FRET IC50. It counts as binding.
Test [2] concerns BH4 levels in SK-N-BE (2) cells. Nature of the test: SKN-N-BE (2) cellular assay, BH4 levels by LC-MS. It counts as cell-based. The following applies: Homo sapiens, SKNBE2, read-out: SK-N-BE(2) IC50, SK-N-BE (2) cells, BH4 levels by LC-MS.

SNAP-hSPR (sepiapterin reductase, SPR), sequence (P35270 whole entry): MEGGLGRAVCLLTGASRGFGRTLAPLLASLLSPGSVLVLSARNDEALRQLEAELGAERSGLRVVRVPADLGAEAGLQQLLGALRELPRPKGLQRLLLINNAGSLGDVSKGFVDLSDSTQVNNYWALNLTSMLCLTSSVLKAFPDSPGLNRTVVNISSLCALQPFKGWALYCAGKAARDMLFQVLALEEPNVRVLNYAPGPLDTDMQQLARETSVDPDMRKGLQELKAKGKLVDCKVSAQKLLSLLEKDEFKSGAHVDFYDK

Consider `O=c1[nH]c(-n2cc(OC3CCCC3)cn2)nc2c1CCC2` [Q-0529], for which the half-maximal inhibitory concentration (IC50) is 10 nM in test [1] and 100 nM in test [2].
The matching figures for `CC(C)(C#N)C1CCN(C(=O)c2cnn(-c3nn4cccc4c(=O)[nH]3)c2)CC1` [Q-0720]: 1 nM and 300 nM.
For `O=C(c1cnn(-c2nn3cccc3c(=O)[nH]2)c1)N1CCC(S(=O)(=O)c2ccc(F)c(F)c2)CC1` [Q-0716] the same measures were 2 nM and 400 nM.
For `Cc1cc(=O)[nH]c(-n2ncc(C(=O)N3CCOCC3)c2C(F)F)n1` [Q-0349] the same measures were 30 nM and 57000 nM.
As for `Cc1ccc(C2(C)CN(C(=O)c3cnn(-c4nc5c(c(=O)[nH]4)CCC5)c3C)CCO2)cc1` (centres unmarked) [Q-0501], the IC50 in test [1] worked out at 9 nM; in test [2] it was 200 nM.
For `Cc1c(C(=O)N2CCC(C#N)(c3ccccc3)CC2)cnn1-c1nn2cccc2c(=O)[nH]1` [Q-0599] the same measures were 2 nM and 12 nM.
As to `O=C(c1cnn(-c2nc3c(c(=O)[nH]2)CCC3)c1C1CC1)N1CCC(C(F)(F)F)CC1` [Q-0463], the figures for the IC50 in test [1] and in test [2] were 4 nM and 300 nM, respectively.
The matching figures for `Cc1c(C(=O)N2CCC3OCCCC3C2)cnn1-c1nc2c(c(=O)[nH]1)CCC2` (centres unmarked) [Q-0576]: 6 nM and 100 nM.
Regarding `Cc1c(C(=O)N2CCCc3ccccc32)cnn1-c1nc2ccsc2c(=O)[nH]1` [Q-0395], the results for the half-maximal inhibitory concentration (IC50) in test [1] and in test [2] were 20 nM and 500 nM, respectively.
In the case of `Cc1c(C(=O)N2CCN(C(=O)C34CC(C(N)=O)(C3)C4)CC2)cnn1-c1nc2c(c(=O)[nH]1)CCC2` [Q-0630], the concentration for half-maximal inhibition (IC50) in test [1] came to 9 nM; in test [2], 10000 nM.
The matching figures for `Cc1cc(-n2ncc(C(=O)N3CCC(C(F)(F)F)CC3)c2C)[nH]c(=O)c1` [Q-0439, 4-methyl-6-{5-methyl-4-[4-(trifluoromethyl)piperidine-1-carbonyl]-1H-pyrazol-1-yl}-1,2-dihydropyridin-2-one]: 1 nM and 96 nM.
For `Cc1c(C(=O)N2CC3(C2)CC(O)(C(F)(F)F)C3)cnn1-c1nn2cccc2c(=O)[nH]1` [Q-0805] the same measures were 4 nM and 2300 nM.
As for `O=C(c1cnn(-c2cc3ccsc3c(=O)[nH]2)c1)N1CCC(C(F)(F)F)CC1` [Q-0511, 5-{4-[4-(trifluoromethyl)piperidine-1-carbonyl]-1H-pyrazol-1-yl}-6H,7H-thieno[2,3-c]pyridin-7-one], the IC50 in test [1] turned out to be 3 nM; in test [2] it was 300 nM.
The matching figures for `Cc1c(C(=O)N2CC[C@H]3CCCC[C@H]3C2)cnn1-c1nc2ccsc2c(=O)[nH]1` [Q-0402]: 10 nM and 41 nM.
The matching figures for `Cc1c(C(=O)N2CC(C(F)(F)F)CC(C(F)(F)F)C2)cnn1-c1nc2ccsc2c(=O)[nH]1` (centres unmarked) [Q-0406]: 50 nM and 2000 nM.
Turning to `Cc1c(C(=O)N2CCC(F)(F)CC2)cnn1-c1nc2c(c(=O)[nH]1)CCC2` [Q-0424], the IC50 was 4 nM in test [1] and 1100 nM in test [2].
On to `Cc1c(C(=O)N2CCc3ccccc3C2)cnn1-c1nc(C(C)(C)C)cc(=O)[nH]1` [Q-0383], for which the IC50 in test [1] was 300 nM; in test [2], 69000 nM.
The matching figures for `O=C(c1cnn(-c2nn3cccc3c(=O)[nH]2)c1)N1CCC2(CC1)CC2` [Q-0708]: 1 nM and 97 nM.
For `Cc1cc(=O)[nH]c(-n2ncc(C(=O)N(C)Cc3ccccc3)c2C)n1` [Q-0318] the same measures were 6 nM and 2100 nM.
The matching figures for `O=C(c1ccnc(-c2nc3c(c(=O)[nH]2)CCC3)c1)N1CCC(C(F)(F)F)CC1` [Q-0508]: 30 nM and 2000 nM.
On to `CCC1(C#N)CCN(C(=O)c2cnn(-c3nc4ccsc4c(=O)[nH]3)c2C)CC1` [Q-0562], for which the IC50 in test [1] was determined as 4 nM; in test [2] it was 200 nM.
The matching figures for `O=C(c1ccn(-c2nc3c(c(=O)[nH]2)CCC3)c1)N1CCC(C(F)(F)F)CC1` [Q-0732]: 1 nM and 100 nM.
The matching figures for `Cc1c(C(=O)N2CCC(c3cccc4[nH]ccc34)CC2)cnn1-c1nc2c(c(=O)[nH]1)CCC2` [Q-0615]: 3 nM and 19 nM.
The matching figures for `O=C(c1cnn(-c2nn3c(F)ccc3c(=O)[nH]2)c1C1CC1)N1CCC(C(F)(F)F)CC1` [Q-0620]: 1 nM and 100 nM.
`Cc1c(C(=O)N2CCN(c3cccc(Cl)c3)CC2)cnn1-c1nn2cccc2c(=O)[nH]1` [Q-0830]: the results for the 50% inhibitory concentration (IC50) in test [1] and in test [2] were 1 nM and 41 nM, respectively.
For `Cc1c(C(=O)N2CCc3ccccc3C2)cnn1-c1ncc(Cl)c(=O)[nH]1` [Q-0387] the same measures were 10 nM and 3700 nM.
Regarding `Cc1cc(=O)[nH]c(-n2ncc(C(=O)NC3CCCc4ccccc43)c2C)n1` (centres unmarked) [Q-0362], the concentration for half-maximal inhibition (IC50) in test [1] is 20 nM; in test [2], 2900 nM.
For `Cc1cc(=O)[nH]c(-n2ncc(C(=O)N3CCC(C(F)(F)F)CC3)c2C)n1` [Q-0359] the same measures were 3 nM and 1100 nM.
For `O=C(c1cnn(-c2nn3cccc3c(=O)[nH]2)c1)N1CCC(c2c[nH]c3ccccc23)CC1` [Q-0536] the same measures were 7 nM and 59 nM.
For `Cc1c(C(=O)N2CCN(C(=O)OC(C)(C)C)C3(CCC3)C2)cnn1-c1nn2cccc2c(=O)[nH]1` [Q-0820] the same measures were 1 nM and 40 nM.
On to `Cc1cc(=O)[nH]c(-n2ncc(C(=O)N3CCc4ccccc4C3)c2Cc2ccccc2)n1` [Q-0358], for which the IC50 came out at 100 nM in test [1] and 22000 nM in test [2].
Regarding `CCCN(CCC)C(=O)c1cnn(-c2nc(C)cc(=O)[nH]2)c1C` [Q-0351], the IC50 in test [1] was 10 nM; in test [2] it was 4600 nM.
The matching figures for `Cc1c(C(=O)N(C)C2CCCCC2)cnn1-c1nc2c(c(=O)[nH]1)CCC2` [Q-0492]: 8 nM and 200 nM.
The matching figures for `Cc1c(C(=O)N2CCC(C(F)(F)F)C2)cnn1-c1nc2ccsc2c(=O)[nH]1` (centres unmarked) [Q-0403]: 9 nM and 1100 nM.
For `Cc1c(C(=O)N2CCCCC2(C)C)cnn1-c1nc2ccsc2c(=O)[nH]1` [Q-0412] the same measures were 9 nM and 500 nM.
With `CCN(C)C(=O)c1cnn(-c2nc(C)cc(=O)[nH]2)c1C` [Q-0350], the IC50 in test [1] amounted to 20 nM; in test [2], 11000 nM.
For `Cc1c(C(=O)N2CC2c2ccccc2)cnn1-c1nc2c(c(=O)[nH]1)CCC2` (centres unmarked) [Q-0596] the same measures were 4 nM and 16 nM.
For `COC(=O)C12CC(C(=O)N3CCN(C(=O)c4cnn(-c5nc6c(c(=O)[nH]5)CCC6)c4C)CC3)(C1)C2` [Q-0612], the IC50 is 10 nM in test [1] and 2600 nM in test [2].
For `CCC1(C#N)CCN(C(=O)c2cnn(-c3nc4sccc4c(=O)[nH]3)c2C)CC1` [Q-0563] the same measures were 5 nM and 300 nM.
For `Cc1c(C(=O)N2CCC3(CCCCN3C(=O)OC(C)(C)C)C2)cnn1-c1nc2c(c(=O)[nH]1)CCC2` (centres unmarked) [Q-0552] the same measures were 7 nM and 38 nM.
The matching figures for `Cc1c(C(=O)N2CCC(c3nc4ccccc4s3)CC2)cnn1-c1nn2c(F)ccc2c(=O)[nH]1` [Q-0607]: 5 nM and 87 nM.
For `COC(=O)c1cnn(-c2nn3c(F)ccc3c(=O)[nH]2)c1C1CC1` [Q-0618], the half-inhibitory concentration (IC50) in test [1] worked out at 1 nM; in test [2], 25 nM.
The matching figures for `O=C(c1ccnc(-c2nc3ccsc3c(=O)[nH]2)c1)N1CCC(C(F)(F)F)CC1` [Q-0515]: 40 nM and 5300 nM.
The matching figures for `COc1ccc2c(c1)CN(C(=O)c1cnn(-c3nc(C)cc(=O)[nH]3)c1C)CC2` [Q-0307]: 9 nM and 4200 nM.
For `Cc1cc(=O)[nH]c(-n2ncc(C(=O)N3CCc4ccccc4C3)c2C(C)C)n1` [Q-0319] the same measures were 10 nM and 2200 nM.
For `Cc1cc(=O)[nH]c(-n2ccc(C(=O)N3CCc4ccccc4C3)n2)n1` [Q-0308, 6-methyl-2-[3-(1,2,3,4-tetrahydroisoquinoline-2-carbonyl)-1H-pyrazol-1-yl]-3,4-dihydropyrimidin-4-one], the IC50 is 20 nM in test [1] and 2000 nM in test [2].
For `Cc1cc(=O)[nH]c(-n2ncc(C(=O)N(C)C)c2C)n1` [Q-0317] the same measures were 60 nM and 20000 nM.
The matching figures for `Cc1c(C(=O)N2CCC(OCC(F)(F)F)CC2)cnn1-c1nc2c(c(=O)[nH]1)CCC2` [Q-0521]: 8 nM and 100 nM.
For `Cc1c(C(=O)N2CCC(C#N)(c3ccccc3)CC2)cnn1-c1nc2ccsc2c(=O)[nH]1` [Q-0550] the same measures were 2 nM and 100 nM.
For the compound `Cc1c(C(=O)N2CCC(O)(c3ccccc3)CC2)cnn1-c1nc2c(c(=O)[nH]1)CCC2` [Q-0446], the figures for the IC50 in test [1] and in test [2] were 7 nM and 96 nM, respectively.
For `Cc1c(C(=O)N2CCN(c3ccc(F)cc3F)CC2)cnn1-c1nc2c(c(=O)[nH]1)CCC2` [Q-0567] the same measures were 3 nM and 20 nM.
For `CC(C#N)C1CCN(C(=O)c2cnn(-c3nc4c(c(=O)[nH]3)CCC4)c2C2CC2)CC1` (centres unmarked) [Q-0578] the same measures were 8 nM and 700 nM.
For `Cc1cc(=O)[nH]c(-n2cc(C(=O)N3CCC(C(F)(F)F)CC3)cn2)n1` [Q-0443] the same measures were 9 nM and 3900 nM.
Turning to `Cc1c(C(=O)N2c3ccccc3CC2C)cnn1-c1nc2ccsc2c(=O)[nH]1` (centres unmarked) [Q-0401], the results for the half-maximal inhibitory concentration (IC50) in test [1] and in test [2] were 30 nM and 400 nM, respectively.
The matching figures for `Cc1c(C(=O)N2CC3COCC(C3)C2)cnn1-c1nc2c(c(=O)[nH]1)CCC2` [Q-0569]: 10 nM and 300 nM.
